Experimental data as given in ChEMBL document CHEMBL1201862, “PubChem BioAssay data set” (2004).
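Method: 48-hour compound exposure of cells in 96-well plates, five concentrations, linear interpolation of endpoints. The concentration for 50% growth inhibition is given as GI50.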 The source made the active and inactive calls. Cut-off read from the data, not from the text of the source: active = GI50 up to about 1.1 µM and inactive = higher.

Experiments:
Experiment in all cases: NCI tumour cell line growth inhibition, 48 h
[1] = test system: TK-10
[2] = test system: Malme-3M
[3] = test system: HOP-92
[4] = test system: SF-295
[5] = test system: U-251
[6] = test system: BT-549
[7] = test system: MOLT-4
[8] = test system: 786-0
[9] = test system: HL-60
[10] = test system: RPMI-8226
[11] = test system: MCF7
[12] = test system: PC-3
[13] = test system: SN12C
[14] = test system: OVCAR-5
[15] = test system: A498
[16] = test system: CAKI-1
[17] = test system: NCI-H23
[18] = test system: SK-MEL-28
[19] = test system: SW-620
[20] = test system: UACC-62
[21] = test system: HCC 2998
[22] = test system: UO-31
[23] = test system: K562
[24] = test system: Hs-578T
[25] = test system: SK-OV-3
[26] = test system: M14
[27] = test system: MDA-N
[28] = test system: DU-145
[29] = test system: NCI-H226
[30] = test system: KM12
[31] = test system: CCRF-CEM
[32] = test system: MDA-MB-231
[33] = test system: IGROV-1
[34] = test system: EKVX
[35] = test system: HT-29
[36] = test system: T47D
[37] = test system: A549
[38] = test system: MDA-MB-435
[39] = test system: SNB-19
[40] = test system: OVCAR-3
[41] = test system: HCT-15
[42] = test system: OVCAR-8
[43] = test system: ACHN
[44] = test system: LOX IMVI
[45] = test system: NCI/ADR-RES
[46] = test system: SK-MEL-2
[47] = test system: UACC-257
[48] = test system: NCI-H460
[49] = test system: SR
[50] = test system: OVCAR-4
[51] = test system: HOP-62
[52] = test system: HCT-116
[53] = test system: SK-MEL-5
[54] = test system: NCI-H522
[55] = test system: RXF 393
[56] = test system: SNB-75
[57] = test system: SF-268
[58] = test system: SF-539
[59] = test system: COLO 205

CC(=O)OC1O[C@@H](C(C)(C)O)CC[C@@H]1[C@H]1CC[C@@]2(C)C3=C(CC[C@]12C)[C@@]1(C)C[C@@H](OC(=O)CC(C)(O)CC(=O)O)[C@H](OC(C)=O)C(C)(C)C1CC3 (some centres not stated)
GI50 [1]: 19.1 µM (inactive)
GI50 [2]: 17.4 µM (inactive)
GI50 [3]: 16.7 µM (inactive)
GI50 [4]: 17.5 µM (inactive)
GI50 [5]: 16 µM (inactive)
GI50 [6]: 15.8 µM (inactive)
GI50 [7]: 19.4 µM (inactive)
GI50 [8]: 19.3 µM (inactive)
GI50 [9]: 24.4 µM (inactive)
GI50 [10]: 23.3 µM (inactive)
GI50 [11]: 18.3 µM (inactive)
GI50 [12]: 17 µM (inactive)
GI50 [13]: 19.2 µM (inactive)
GI50 [14]: 18.3 µM (inactive)
GI50 [15]: 19.2 µM (inactive)
GI50 [16]: 15.8 µM (inactive)
GI50 [17]: 21.2 µM (inactive)
GI50 [18]: 16.3 µM (inactive)
GI50 [19]: 17.5 µM (inactive)
GI50 [20]: 27.7 µM (inactive)
GI50 [21]: 19 µM (inactive)
GI50 [22]: 15 µM (inactive)
GI50 [23]: 31.3 µM (inactive)
GI50 [24]: 19.5 µM (inactive)
GI50 [25]: 18.2 µM (inactive)
GI50 [26]: 19.5 µM (inactive)
GI50 [27]: 19.2 µM (inactive)
GI50 [28]: 19.1 µM (inactive)
GI50 [29]: 21.7 µM (inactive)
GI50 [30]: 21.9 µM (inactive)
GI50 [31]: 20.8 µM (inactive)
GI50 [32]: 23 µM (inactive)
GI50 [33]: 19.2 µM (inactive)
GI50 [34]: 17.5 µM (inactive)
GI50 [35]: 20.1 µM (inactive)
GI50 [36]: 19.8 µM (inactive)
GI50 [37]: 17.2 µM (inactive)
GI50 [38]: 16.8 µM (inactive)
GI50 [39]: 17.7 µM (inactive)
GI50 [40]: 18.6 µM (inactive)
GI50 [41]: 22.4 µM
GI50 [42]: 17.1 µM (inactive)
GI50 [43]: 18 µM (inactive)
GI50 [44]: 17.7 µM (inactive)
GI50 [45]: 18.1 µM (inactive)
GI50 [46]: 16.4 µM (inactive)
GI50 [47]: 17.5 µM (inactive)
GI50 [48]: 18 µM (inactive)
GI50 [49]: 23.4 µM (inactive)
GI50 [50]: 18 µM (inactive)
GI50 [51]: 18.8 µM (inactive)
GI50 [52]: > 10 µM (inactive)
GI50 [53]: 19.2 µM (inactive)

N=C(N)N/N=C(\c1ccc(Cl)cc1)C1CC1
GI50 [54]: 14.8 µM (inactive)
GI50 [1]: 16.3 µM (inactive)
GI50 [2]: 14.9 µM (inactive)
GI50 [3]: 22.3 µM (inactive)
GI50 [4]: 21.3 µM (inactive)
GI50 [5]: 14.2 µM (inactive)
GI50 [6]: 24.6 µM (inactive)
GI50 [8]: 16.9 µM (inactive)
GI50 [10]: 18.5 µM (inactive)
GI50 [11]: 17.1 µM (inactive)
GI50 [12]: 16.2 µM (inactive)
GI50 [13]: 19.1 µM (inactive)
GI50 [14]: 17.9 µM (inactive)
GI50 [15]: 14.4 µM (inactive)
GI50 [16]: 39 µM (inactive)
GI50 [17]: 27.1 µM (inactive)
GI50 [18]: 19.3 µM (inactive)
GI50 [19]: 18.4 µM (inactive)
GI50 [20]: 15.9 µM (inactive)
GI50 [21]: 7 µM (inactive)
GI50 [22]: 24.6 µM (inactive)
GI50 [23]: 34.8 µM (inactive)
GI50 [24]: 25 µM (inactive)
GI50 [25]: 27.5 µM (inactive)
GI50 [55]: 33.9 µM (inactive)
GI50 [26]: 15.4 µM (inactive)
GI50 [56]: 22.2 µM (inactive)
GI50 [27]: 16.1 µM (inactive)
GI50 [28]: 22.6 µM (inactive)
GI50 [57]: 28.9 µM (inactive)
GI50 [29]: 16.3 µM (inactive)
GI50 [30]: 18.5 µM (inactive)
GI50 [32]: 18.5 µM (inactive)
GI50 [33]: 16.2 µM (inactive)
GI50 [34]: 23.9 µM (inactive)
GI50 [35]: 16.5 µM (inactive)
GI50 [36]: 19.5 µM (inactive)
GI50 [37]: 32.4 µM (inactive)
GI50 [38]: 16.9 µM (inactive)
GI50 [39]: 29 µM (inactive)
GI50 [58]: 17.2 µM (inactive)
GI50 [40]: 19.4 µM (inactive)
GI50 [41]: 19 µM
GI50 [42]: 20.7 µM (inactive)
GI50 [59]: 17.2 µM (inactive)
GI50 [43]: 21.8 µM (inactive)
GI50 [44]: 16.4 µM (inactive)
GI50 [45]: 25.4 µM (inactive)
GI50 [46]: 18.3 µM (inactive)
GI50 [47]: 14.5 µM (inactive)
GI50 [48]: 15.6 µM (inactive)
GI50 [49]: 11.4 µM (inactive)
GI50 [50]: 33 µM (inactive)
GI50 [51]: 19 µM (inactive)
GI50 [52]: 16 µM (inactive)
GI50 [53]: 15.6 µM (inactive)

OC(C1CCC=NN1C(O)(C(F)(F)F)C(F)(F)F)(C(F)(F)F)C(F)(F)F (configuration not stated)
GI50 [54]: > 10 µM (inactive)
GI50 [1]: > 10 µM (inactive)
GI50 [2]: > 10 µM (inactive)
GI50 [3]: > 10 µM (inactive)
GI50 [4]: > 10 µM (inactive)
GI50 [5]: > 10 µM (inactive)
GI50 [6]: > 10 µM (inactive)
GI50 [7]: > 10 µM (inactive)
GI50 [8]: > 10 µM (inactive)
GI50 [10]: > 10 µM (inactive)
GI50 [11]: > 10 µM (inactive)
GI50 [12]: > 10 µM (inactive)
GI50 [13]: > 10 µM (inactive)
GI50 [14]: > 10 µM (inactive)
GI50 [15]: > 10 µM (inactive)
GI50 [16]: > 10 µM (inactive)
GI50 [17]: > 10 µM (inactive)
GI50 [18]: > 10 µM (inactive)
GI50 [20]: > 10 µM (inactive)
GI50 [21]: > 10 µM (inactive)
GI50 [23]: > 10 µM (inactive)
GI50 [24]: > 10 µM (inactive)
GI50 [25]: > 10 µM (inactive)
GI50 [55]: > 10 µM (inactive)
GI50 [26]: > 10 µM (inactive)
GI50 [56]: > 10 µM (inactive)
GI50 [27]: > 10 µM (inactive)
GI50 [28]: > 10 µM (inactive)
GI50 [57]: > 10 µM (inactive)
GI50 [29]: > 10 µM (inactive)
GI50 [30]: > 10 µM (inactive)
GI50 [31]: > 10 µM (inactive)
GI50 [32]: > 10 µM (inactive)
GI50 [33]: > 10 µM (inactive)
GI50 [34]: > 10 µM (inactive)
GI50 [35]: > 10 µM (inactive)
GI50 [36]: > 10 µM (inactive)
GI50 [37]: > 10 µM (inactive)
GI50 [38]: > 10 µM (inactive)
GI50 [39]: > 10 µM (inactive)
GI50 [58]: > 10 µM (inactive)
GI50 [40]: > 10 µM (inactive)
GI50 [41]: > 10 µM
GI50 [42]: > 10 µM (inactive)
GI50 [59]: > 10 µM (inactive)
GI50 [43]: > 10 µM (inactive)
GI50 [44]: > 10 µM (inactive)
GI50 [45]: > 10 µM (inactive)
GI50 [46]: > 10 µM (inactive)
GI50 [47]: > 10 µM (inactive)
GI50 [48]: > 10 µM (inactive)
GI50 [49]: > 10 µM (inactive)
GI50 [50]: > 10 µM (inactive)
GI50 [51]: > 10 µM (inactive)
GI50 [52]: > 10 µM (inactive)
GI50 [53]: > 10 µM (inactive)

COC(=O)C1=C(C)N2[C@H](C(=O)O)CO[C@@]2(C)[C@H](C(=O)OC)[C@H]1c1cccc([N+](=O)[O-])c1
GI50 [54]: > 100 µM (inactive)
GI50 [1]: > 100 µM (inactive)
GI50 [2]: > 100 µM (inactive)
GI50 [3]: > 100 µM (inactive)
GI50 [4]: > 100 µM (inactive)
GI50 [5]: > 100 µM (inactive)
GI50 [6]: > 100 µM (inactive)
GI50 [7]: > 100 µM (inactive)
GI50 [8]: > 100 µM (inactive)
GI50 [10]: > 100 µM (inactive)
GI50 [11]: > 100 µM (inactive)
GI50 [12]: > 100 µM (inactive)
GI50 [13]: > 100 µM (inactive)
GI50 [14]: > 100 µM (inactive)
GI50 [15]: > 100 µM (inactive)
GI50 [16]: > 100 µM (inactive)
GI50 [17]: > 100 µM (inactive)
GI50 [18]: > 100 µM (inactive)
GI50 [19]: > 100 µM (inactive)
GI50 [20]: > 100 µM (inactive)
GI50 [21]: > 100 µM (inactive)
GI50 [22]: > 100 µM (inactive)
GI50 [23]: > 100 µM (inactive)
GI50 [24]: > 100 µM (inactive)
GI50 [25]: > 100 µM (inactive)
GI50 [55]: > 100 µM (inactive)
GI50 [26]: > 100 µM (inactive)
GI50 [56]: > 100 µM (inactive)
GI50 [27]: > 100 µM (inactive)
GI50 [28]: > 100 µM (inactive)
GI50 [57]: > 100 µM (inactive)
GI50 [29]: > 100 µM (inactive)
GI50 [30]: > 100 µM (inactive)
GI50 [31]: > 100 µM (inactive)
GI50 [32]: > 100 µM (inactive)
GI50 [33]: > 100 µM (inactive)
GI50 [34]: > 100 µM (inactive)
GI50 [35]: > 100 µM (inactive)
GI50 [36]: > 100 µM (inactive)
GI50 [37]: > 100 µM (inactive)
GI50 [38]: > 100 µM (inactive)
GI50 [39]: > 100 µM (inactive)
GI50 [58]: > 100 µM (inactive)
GI50 [40]: > 100 µM (inactive)
GI50 [41]: > 100 µM
GI50 [42]: > 100 µM (inactive)
GI50 [59]: > 100 µM (inactive)
GI50 [43]: > 100 µM (inactive)
GI50 [45]: > 100 µM (inactive)
GI50 [46]: > 100 µM (inactive)
GI50 [47]: > 100 µM (inactive)
GI50 [48]: > 100 µM (inactive)
GI50 [49]: > 100 µM (inactive)
GI50 [50]: > 100 µM (inactive)
GI50 [51]: > 100 µM (inactive)
GI50 [52]: > 100 µM (inactive)
GI50 [53]: > 100 µM (inactive)
